Data published in patent publication US11667643B2, “RIP1K inhibitors” (priority 2020, dated 2023).
Where two headings read alike, the source gives them in different places.

What was measured:
L929 cells = assay: L929 cell necroptosis assay (TNFa + zVAD, CellTiter-Glo recovery), functional murine RIP1 assay; type: cell-based
Description: (§1) In this example, U937 and L929 cells were exposed to compounds of the present disclosure and a cell necroptosis assay was conducted to evaluate compound activity in functional human RIP1 and murine RIP1 assays.
(§2) U937 and L929 cells were obtained from the American Type Culture Collection (Manassa, Va., USA). Both cells were maintained in logarithmic growth phase in complete RPMI 1640 media (Sigma, ST Louis, Mo., USA) supplemented with 10% fetal bovine serum (Sigma, ST Louis, Mo., USA) at 37° C. with 5% CO2. For necroptosis assay, L929 cells were plated for 18 h in 100 μL/well medium at 10K cells/well in Costar 96-well black clear-bottom plates (Fisher Scientific, Hampton, N.H., USA); U937 cells were plated on the day of the assay in 50 μL/well medium containing 60 uM zVAD-fmk (Lonza, Basel, Switzerland) at 50K cells/well. Medium from L929 cells were removed from the 96-well plates and replaced with 50 μL/well new medium containing 40 uM zVAD-fmk. Each compound of the present disclosure evaluated in this example was serially diluted in DMSO from 2.5 mM in 4-fold dilutions, and then diluted 1:125 in complete medium. 50 μL/well 2× of the compound was then added to the cells in the plates. The cells were pre-incubated with the compound for 1 hour at 37° C. with 5% CO2 and before addition of 10 μL/well 11×TNFa (Peprotech, Rocky Hill, N.J., USA) to give a final concentration of 2 ng/mL for TNFa. The relative amount of necroptosis cells was determined by luminescent using a Wallac Victor2 Luminometer (PerkinElmer, Waltham, Mass., USA) and a CellTiter-Glo® Luminescent Cell Viability Reagent Assay (Promega, Madison, Wis., USA) added per manufacturer instructions after 18 hours of TNFa stimulation at 37° C. with 5% CO2. This example establishes that embodiments of the compounds described herein have unexpectedly potent activity against human RIP1 and murine RIP1, which allows their assessment in in vivo mouse models of disease.

U937 cells = assay: U937 cell necroptosis assay (TNFa + zVAD, CellTiter-Glo recovery), functional human RIP1 assay; type: cell-based
Description: as §1, §2

RIPK1 = RIPK1 (Homo sapiens (Human), UniProt Q13546); assay: biochemical; type: biochemical; settings: RIPK1 enzyme 31 ng/well, 30° C. for 30 minutes, luminescence; read-out: RIPK1 ADP-Glo Kinase (IC50)
Sequence of RIPK1 (Q13546 whole entry, species assumed): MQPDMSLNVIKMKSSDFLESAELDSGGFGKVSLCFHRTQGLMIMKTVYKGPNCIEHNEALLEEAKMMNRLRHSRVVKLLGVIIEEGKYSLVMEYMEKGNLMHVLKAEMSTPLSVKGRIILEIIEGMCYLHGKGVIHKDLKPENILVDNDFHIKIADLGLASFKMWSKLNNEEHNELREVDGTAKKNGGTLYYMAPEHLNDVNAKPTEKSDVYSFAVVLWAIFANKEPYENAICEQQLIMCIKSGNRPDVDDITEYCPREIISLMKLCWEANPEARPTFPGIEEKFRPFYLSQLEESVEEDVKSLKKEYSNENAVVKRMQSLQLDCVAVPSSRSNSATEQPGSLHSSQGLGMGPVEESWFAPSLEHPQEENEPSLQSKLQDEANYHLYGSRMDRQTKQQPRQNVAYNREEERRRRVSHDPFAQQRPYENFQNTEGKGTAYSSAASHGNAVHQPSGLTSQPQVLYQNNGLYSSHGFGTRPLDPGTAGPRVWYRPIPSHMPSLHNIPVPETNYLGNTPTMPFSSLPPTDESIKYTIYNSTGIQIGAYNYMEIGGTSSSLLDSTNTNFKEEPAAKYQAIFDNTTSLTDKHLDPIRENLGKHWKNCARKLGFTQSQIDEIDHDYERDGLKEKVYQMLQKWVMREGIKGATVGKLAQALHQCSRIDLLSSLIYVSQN
Description: In this example, compounds of the disclosure were evaluated using a biochemical assay using the ADP-Glo™ technology.
ADP-Glo™ (Promega, Madison, Wis., USA) reagents were thawed at ambient temperature. Kinase Detection Reagent was prepared by mixing kinase detection buffer with the lyophilized kinase detection substrate.
A […] stock volume of 5× Reaction Kinase Buffer was made by mixing 1000 μl of 1M MgCl2, 500 μl of 1M Tris-HCL pH7.4, 0.5 mg/ml (25 mg) of BSA, and 3475 μl of distilled H2O. A 3 ml 2× working stock volume of Reaction Kinase Buffer was made containing a final concentration of 100 μM DTT and 4 mM MnCl2.
Components of RIPK1 enzyme (Rigel Pharmaceuticals, South San Francisco, Calif., USA) were thawed on ice. Diluted RIPK1 was prepared in 1× Kinase Reaction Buffer (diluted from 2× buffer) to 31 ng/well.
1.0 ul of diluted compound was added to a 384 well plate in duplicate. […] The final reaction volume was 5.0 μl. The plate was quickly centrifuged and the reaction was incubated at 30° C. for 30 minutes. Adding 5 μl of ADP-Glo™ terminated the reaction. The plate was quickly centrifuged and the reaction was incubated at room temperature for 40 minutes. Kinase Detection Reagent was then added and incubated at room temperature for 30 minutes. The relative light unit (RLU) of kinase reaction was determined by luminescent (Luminescence 0.1 s) using a Wallac Victor2 Luminometer (PerkinElmer, Waltham, Mass., USA).

[1] = Mus musculus, L929, 18 h, read-out: L929-CTG-recovery, L929, TNFa + zVAD (IC50), L929 cells, zVAD-fmk, TNFa 2 ng/mL, 18 hours, CellTiter-Glo
[2] = Homo sapiens, U-937, 18 h, read-out: U937 Zvad TNF CTG Recovery, U937, TNFa + zVAD (IC50), U937 cells, zVAD-fmk, TNFa 2 ng/mL, 18 hours, CellTiter-Glo
[3] = read-out: L929-CTG-recovery, L929, TNFa + zVAD (IC50), L929 cells, zVAD-fmk, TNFa 2 ng/mL, 18 hours, CellTiter-Glo
[4] = read-out: U937 Zvad TNF CTG Recovery, U937, TNFa + zVAD (IC50), U937 cells, zVAD-fmk, TNFa 2 ng/mL, 18 hours, CellTiter-Glo

| SMILES | IC50 (L929 cells; [1]) | IC50 (U937 cells; [2]) | IC50 (RIPK1) | IC50 (L929 cells; [3]) | IC50 (U937 cells; [4]) |
| --- | --- | --- | --- | --- | --- |
| O=C(NC1CCc2ccccc2-n2ccnc21)c1n[nH]c(Cc2ccccc2)n1 (racemic) [Compound I-1, (±)-5-Benzyl-N-(5,6-dihydro-4H-benzo[f]imidazo[1,2-a]azepin-4-yl)-1H-1,2,4-triazole-3-carboxamide] | 10000 µM | 0.376 µM |  |  |  |
| O=C(NC1CCc2ccccc2-n2ccnc21)c1nccc(-c2ccccc2)n1 (racemic) [Compound I-2, (±)-N-(5,6-Dihydro-4H-benzo[f]imidazo[1,2-a]azepin-4-yl)-4-phenylpyrimidine-2-carboxamide] | 10000 µM | 40.3 µM | 6.23 µM |  |  |
| O=C(NC1CCc2ccccc2-n2ccnc21)c1ncnn1Cc1c(Cl)cccc1Cl (racemic) [Compound I-6, (±)-1-(2,6-Dichlorobenzyl)-N-(5,6-dihydro-4H-benzo[f]imidazo[1,2-a]azepin-4-yl)-1H-1,2,4-triazole-5-carboxamide] | 10000 µM | 885 µM |  |  |  |
| O=C(NC1CCc2ccccc2-n2ccnc21)c1ncn(Cc2c(Cl)cccc2Cl)n1 (racemic) [Compound I-7, (±)-1-(2,6-dichlorobenzyl)-N-(5,6-dihydro-4H-benzo[f]imidazo[1,2-a]azepin-4-yl)-1H-1,2,4-triazole-3-carboxamide] | 12.7 µM | 0.0137 µM |  |  |  |
| O=C(NC1CCc2ccccc2-n2ccnc21)c1cc(Cc2ccccc2)on1 (racemic) [Compound I-9, (±)-5-Benzyl-N-(5,6-dihydro-4H-benzo[f]imidazo[1,2-a]azepin-4-yl)isoxazole-3-carboxamide] | 10000 µM | 0.222 µM | 0.0261 µM |  |  |
| O=C(NC1CCc2ccccc2-n2ccnc21)c1ncn(Cc2ccccc2F)n1 (racemic) [Compound I-14, (±)-N-(5,6-Dihydro-4H-benzo[f]imidazo[1,2-a]azepin-4-yl)-1-(2-fluorobenzyl)-1H-1,2,4-triazole-3-carboxamide] | 2.34 µM | 0.0066 µM | 0.0166 µM |  |  |
| O=C(NC1CCc2ccccc2-n2ccnc21)c1n[nH]c(Cc2c(Cl)cccc2Cl)n1 (racemic) [Compound I-19, (±)-5-(2,6-Dichlorobenzyl)-N-(5,6-dihydro-4H-benzo[f]imidazo[1,2-a]azepin-4-yl)-1H-1,2,4-triazole-3-carboxamide] | 10000 µM | 0.96 µM | 0.393 µM |  |  |
| O=C(NC1COc2ccccc2-n2cccc21)c1ncn(Cc2c(Cl)cccc2Cl)n1 (racemic) [Compound I-27, (±)-1-(2,6-Dichlorobenzyl)-N-(6,7-dihydrobenzo[b]pyrrolo[1,2-d][1,4]oxazepin-7-yl)-1H-1,2,4-triazole-3-carboxamide] | 5.55 µM | 0.034 µM | 0.0684 µM |  |  |
| Cc1cnc2n1-c1ccccc1CCC2NC(=O)c1n[nH]c(Cc2ccccc2)n1 (racemic) [Compound I-40, (±)-5-Benzyl-N-(1-methyl-5,6-dihydro-4H-benzo[f]imidazo[1,2-a]azepin-4-yl)-1H-1,2,4-triazole-3-carboxamide] | 10000 µM | 10000 µM |  |  |  |
| CC(C)(O)C#Cc1ccc2c(c1)-n1ccnc1C(NC(=O)c1n[nH]c(Cc3ccccc3)n1)CC2 (racemic) [Compound I-55, (±)-5-Benzyl-N-(9-(3-hydroxy-3-methylbut-1-yn-1-yl)-5,6-dihydro-4H-benzo[f]imidazo[1,2-a]azepin-4-yl)-1H-1,2,4-triazole-3-carboxamide] | 9.5 µM | 0.0206 µM |  |  |  |
| O=C(NC1CCc2ccccc2-n2c1nc(Cl)c2Cl)c1cc(Cc2ccccc2)on1 (racemic) [Compound I-70, (±)-5-Benzyl-N-(1,2-dichloro-5,6-dihydro-4H-benzo[f]imidazo[1,2-a]azepin-4-yl)isoxazole-3-carboxamide] | 10000 µM | 73.4 µM |  |  |  |
| CC(C)(O)C#Cc1ccc2c(c1)-n1ccnc1C(NC(=O)c1n[nH]c(Cc3ccccc3)n1)CO2 (racemic) [Compound I-90, (±)-5-Benzyl-N-(9-(3-hydroxy-3-methylbut-1-yn-1-yl)-4,5-dihydrobenzo[b]imidazo[1,2-d][1,4]oxazepin-4-yl)-1H-1,2,4-triazole-3-carboxamide] | 10000 µM | 0.17 µM |  |  |  |
| O=C(NC1CCc2ccccc2-n2ccnc21)c1n[nH]c(Cc2ccccc2)n1 (single isomer, unassigned) [Compound I-4] |  |  |  | 10000 µM | 0.203 µM |
| O=C(NC1CCc2ccccc2-n2ccnc21)c1n[nH]c(Cc2ccccc2)n1 (single isomer, unassigned) [Compound I-5] | 10000 µM |  |  |  | 86.6 µM |
| O=C(NC1CCc2ccccc2-n2ccnc21)c1ncn(Cc2c(Cl)cccc2Cl)n1 (single isomer, unassigned) [Compound I-12] |  |  |  | 10000 µM | 17 µM |
| O=C(NC1CCc2ccccc2-n2ccnc21)c1ncn(Cc2c(Cl)cccc2Cl)n1 (single isomer, unassigned) [Compound I-13] |  |  |  | 3.38 µM | 0.003 µM |
| CC(C)(O)C#Cc1ccc2c(c1)-n1ccnc1C(NC(=O)c1n[nH]c(Cc3ccccc3)n1)CO2 (single isomer, unassigned) [Compound I-92] | 6 µM | 0.0676 µM |  |  |  |
| O=C(N[C@H]1COc2ccccc2-n2nnnc21)c1ncnn1Cc1c(Cl)cccc1Cl [Compound I-10, (R)-1-(2,6-Dichlorobenzyl)-N-(4,5-dihydrobenzo[6]tetrazolo[1,5-d][1,4]oxazepin-4-yl)-1H-1,2,4-triazole-5-carboxamide] | 10000 µM | 5020 µM |  |  |  |
| Cc1cccc(C)c1Cn1cnc(C(=O)N[C@H]2COc3ccccc3-n3nnnc32)n1 [Compound I-20, (R)—N-(4,5-Dihydrobenzo[&]tetrazolo[1,5-d][1,4]oxazepin-4-yl)-1-(2,6-dimethylbenzyl)-1H-1,2,4-triazole-3-carboxamide] |  | 1.56 µM | 1.87 µM |  |  |
| CC(C)(O)C#Cc1ccc2c(c1)-n1nnnc1[C@@H](NC(=O)c1cc(O)n(Cc3ccccc3)n1)CO2 [Compound I-76, (R)-1-Benzyl-5-hydroxy-N-(9-(3-hydroxy-3-methylbut-1-yn-1-yl)-4,5-dihydrobenzo[b]tetrazolo[1,5-d][1,4]oxazepin-4-yl)-1H-pyrazole-3-carboxamide] | 10000 µM | 10000 µM |  |  |  |
| CN1C(=O)[C@@H](N2CCc3c(nn(Cc4ccccc4)c3Cl)C2=O)COc2cc(C#CC(C)(C)O)ccc21 [Compound I-78] | 0.0061 µM | 0.0022 µM |  |  |  |
| CC(C)(O)C#Cc1ccc2c(c1)-n1ccnc1[C@@H](NC(=O)c1n[nH]c(Cc3ccccc3)n1)CC2 [Compound I-82, (S)-5-Benzyl-N-(9-(3-hydroxy-3-methylbut-1-yn-1-yl)-5,6-dihydro-4H-benzo[f]imidazo[1,2-a]azepin-4-yl)-1H-1,2,4-triazole-3-carboxamide] | 5.29 µM | 0.0084 µM |  |  |  |
| CC(C)(O)C#Cc1ccc2c(c1)-n1ccnc1[C@H](NC(=O)c1n[nH]c(Cc3ccccc3)n1)CO2 [Compound I-91, (S)-5-Benzyl-N-(9-(3-hydroxy-3-methylbut-1-yn-1-yl)-4,5-dihydrobenzo[b]imidazo[1,2-d][1,4]oxazepin-4-yl)-1H-1,2,4-triazole-3-carboxamide] | 10000 µM | 10000 µM |  |  |  |
